This note sets out measurements from patent publication US8263605B2, “Modulators of muscarinic receptors” (Vertex Pharmaceutical Incorporated, priority 2006, dated 2012).

Some results are limits rather than exact numbers.

For one assay, the target named is T1, M1 muscarinic receptor (Homo sapiens, UniProt P11229).
T1 construct: expressed in transfected cells; host or cells: CHO (M1-CHO)
T1 sequence (P11229 1-460): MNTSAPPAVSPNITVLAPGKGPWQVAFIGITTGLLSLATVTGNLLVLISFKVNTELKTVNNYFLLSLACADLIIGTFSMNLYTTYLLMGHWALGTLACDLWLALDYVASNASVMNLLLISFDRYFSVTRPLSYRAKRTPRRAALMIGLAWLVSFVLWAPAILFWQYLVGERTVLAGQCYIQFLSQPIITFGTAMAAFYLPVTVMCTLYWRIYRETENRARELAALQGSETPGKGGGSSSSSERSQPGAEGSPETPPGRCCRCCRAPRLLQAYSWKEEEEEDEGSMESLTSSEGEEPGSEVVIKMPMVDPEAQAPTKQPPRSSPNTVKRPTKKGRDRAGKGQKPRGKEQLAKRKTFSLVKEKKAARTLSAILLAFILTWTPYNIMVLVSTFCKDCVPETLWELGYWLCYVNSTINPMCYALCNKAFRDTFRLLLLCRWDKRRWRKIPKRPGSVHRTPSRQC
Put plainly: Functional mobilization of intracellular calcium (FLIPR), M1-CHO cells. The assay is classed as cell-based. The conditions noted are these: for Emax: 100% efficacy is the maximum response obtained with the Carbachol control; for M1 Activity: CHO cells expressing M1, calcium mobilization. The method in brief:
(§1)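 Recombinant CHO cells loaded with Fluo-3 AM or Calcium 3 dye; fluorescence recorded 60 s on FLIPR in pH 7.4 buffer with 1 mM probenecid, 0.5% DMSO. Agonist mode: compound alone; antagonist mode: 15 min preincubation (or co-application) then carbachol at EC80. Efficacy relative to maximal carbachol response.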
(In general: A change in cytosolic calcium serves as a functional read-out for many receptors and channels.)

Another assay concerns the target T2, M4 muscarinic receptor (Homo sapiens, UniProt P08173).
T2 construct: expressed in transfected cells; host or cells: CHO (M4-CHO)
T2 sequence (P08173 1-479): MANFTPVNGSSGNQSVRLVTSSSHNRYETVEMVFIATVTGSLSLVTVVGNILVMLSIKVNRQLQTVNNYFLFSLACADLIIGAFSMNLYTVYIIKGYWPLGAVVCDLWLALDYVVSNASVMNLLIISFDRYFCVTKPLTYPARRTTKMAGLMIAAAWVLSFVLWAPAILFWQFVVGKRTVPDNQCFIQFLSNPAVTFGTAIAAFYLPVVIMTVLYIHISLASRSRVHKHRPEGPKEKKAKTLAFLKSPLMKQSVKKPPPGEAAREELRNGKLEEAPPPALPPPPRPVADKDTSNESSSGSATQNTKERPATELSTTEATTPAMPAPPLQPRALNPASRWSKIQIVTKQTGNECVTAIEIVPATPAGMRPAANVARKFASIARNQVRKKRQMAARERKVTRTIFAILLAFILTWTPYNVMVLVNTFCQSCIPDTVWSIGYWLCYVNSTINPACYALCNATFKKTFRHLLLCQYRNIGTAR
Put plainly: Functional mobilization of intracellular calcium (FLIPR), M4-CHO cells. The assay is classed as cell-based. The settings on record: for Emax: 100% efficacy is the maximum response obtained with the Carbachol control; for M4 Activity: CHO cells expressing M4, calcium mobilization. In short, it runs like this:
as §1

Turning to `C#CCOC(=O)N1CCC(N2CCC3(CCN(C(=O)N(C)C)c4ccccc43)CC2)CC1` [compound 4], at M1 muscarinic receptor, the Emax was in the range of 25 to 100% and the “M1 Activity” value was “+++ (activity was measured to be less than 2.0 μM)”. Further, on M4 muscarinic receptor, the Emax was in the range of 25 to 100% and the “M4 Activity” value is given as “+++ (activity was measured to be less than 2.0 μM)”.

Turning to `CCOC(=O)N1C2CCC1CC(N1CCC3(CCN(C(C)=O)c4ccccc43)CC1)C2` (stereo not shown) [compound 1], at M1 muscarinic receptor, the maximal response (Emax) lay within 25 to 100% and the “M1 Activity” value is listed as “+++ (activity was measured to be less than 2.0 μM)”. For the same compound, at M4 muscarinic receptor, the Emax lay within 25 to 100% and the “M4 Activity” value is on record as “+++ (activity was measured to be less than 2.0 μM)”.

With `CN(C)C(=O)N1CC2(CCN(C3CCCN(C(=O)OCC(F)F)CC3)CC2)c2ccccc21` (stereo not shown) [compound 71], on M1 muscarinic receptor, the Emax lay in the range of 25 to 100% and the “M1 Activity” value is “+++ (activity was measured to be less than 2.0 μM)”. In addition, on M4 muscarinic receptor, the Emax lay in the range of 25 to 100% and the “M4 Activity” value was “+++ (activity was measured to be less than 2.0 μM)”.

In the case of `CCOC(=O)N1CC[C@@H](CN2CCC3(CC2)CN(C(=O)N(C)C)c2ccccc23)C1` [compound 96], on M1 muscarinic receptor, the Emax is 25 to 100% and the “M1 Activity” value was “+++ (activity was measured to be less than 2.0 μM)”. For the same compound, at M4 muscarinic receptor, the Emax was more than 100% and the “M4 Activity” value is reported as “+++ (activity was measured to be less than 2.0 μM)”.

For `CN(C)C(=O)N1CC2(CCN(C3CCN(c4cncc(Cl)n4)CC3)CC2)c2ccccc21` [compound 77], on M1 muscarinic receptor, the Emax was 25 to 100% and the “M1 Activity” value is given as “+++ (activity was measured to be less than 2.0 μM)”. On M4 muscarinic receptor, the Emax fell in the range of 25 to 100% and the “M4 Activity” value was “+++ (activity was measured to be less than 2.0 μM)”.

In the case of `COCCOC(=O)N1CCC(N2CCC3(CC2)CN(C(=O)N(C)C)c2ccccc23)CC1` [compound 43], on M1 muscarinic receptor, the Emax was in the range of 25 to 100% and the “M1 Activity” value was “+++ (activity was measured to be less than 2.0 μM)”. On M4 muscarinic receptor, the Emax was 25 to 100% and the “M4 Activity” value is “+++ (activity was measured to be less than 2.0 μM)”.

On to `COC(=O)N1CCCC(N2CCC3(CC2)CN(C(=O)N(C)C)c2ccccc23)CC1` (stereo not shown) [compound 67], for which, on M1 muscarinic receptor, the Emax was in the range of 25 to 100% and the “M1 Activity” value is “+++ (activity was measured to be less than 2.0 μM)”. On M4 muscarinic receptor, the Emax fell in the range of 25 to 100% and the “M4 Activity” value is “+++ (activity was measured to be less than 2.0 μM)”.

Usually Emax stands for the size of the effect at its maximum, as opposed to the concentration needed.
